According to US7488481B2, “Polypeptides derived from anti-HIV-1 gp120 antibodies that abrogate gp120 binding to CCR5” (priority 2003, dated 2009):
Ends that are not written are not given here. * marks the point of attachment. SO3H = O=S(=O)(O)*

Key:
[1] = tested on: interaction between gp120 and CCR5; assay: Effectiveness of peptides based upon E51
[2] = tested on: association of gp120 with CCR5; settings: peptides previously characterized; cited from earlier work
ADA gp120 = assay: Peptide competition of scFv association with ADA gp120 and CD4-Ig; format: binding, HIV-1; settings: scFv of sulfated antibodies
Protocol: Radiolabeled single-chain antibody constructs (scFv) were incubated with radiolabeled gp120 of the ADA isolate in the presence and absence of soluble CD4. […] Ratios of gp120 precipitated in the presence and absence of soluble CD4 were calculated by densitometry. Radiolabeled scFv was incubated with ADA gp120 and CD4-Ig in the presence of peptide buffer (buffer only), an unsulfated peptide derived from the first 22 residues of the CCR5 amino-terminus (c22), a peptide derived from the first 22 residues of the CCR5 amino-terminus in which tyrosines 10 and 14 are sulfated (s22), or a peptide derived from residues 7-28 of the C5a receptor sulfated at the tyrosines corresponding to residues 11 and 14 of the C5a receptor (c5aR-s22).

Substance	effectiveness compared with the longer sequence SEQ ID NO:4 [1]	effect of peptide on the association of gp120 with CCR5 [2]	effect of peptide on association of scFv with ADA gp120 (ADA gp120)
GDYADYDGGYYYDMD (listed as Homo sapiens) [SEQ ID NO:3, shorter peptide based upon E51]	just as effective as the longer sequence	–	–
c5aR-s22: peptide from residues 7-28 of the C5a receptor sulfated at tyrosines 11 and 14	–	did not have a noticeable effect	very modest inhibition
c22: unsulfated peptide derived from the first 22 residues of the CCR5 amino-terminus (MDYQVSSPIYDINYYTSEPCQK; UniProt P51681 1-22, looked up, fragment)	–	–	no significant effect
s22: peptide from the first 22 residues of the CCR5 amino-terminus in which tyrosines 10 and 14 are sulfated (MDYQVSSPIY(SO3H)DINY(SO3H)YTSEPCQK)	–	–	inhibited
